Assay [1] has as its target Prothrombin (Homo sapiens, UniProt P00734). As to the kind of experiment: Compound was tested for inhibitory activity against Thrombin.
The target of assay [2] is T1, Coagulation factor XI (Homo sapiens, UniProt P03951). The assay is described as follows: Compound was tested for inhibitory activity against Coagulation factor XIa at 8 uM.
The target in assay [3] is T2, Coagulation factor VII (Homo sapiens, UniProt P08709).
T2 sequence (P08709 whole entry): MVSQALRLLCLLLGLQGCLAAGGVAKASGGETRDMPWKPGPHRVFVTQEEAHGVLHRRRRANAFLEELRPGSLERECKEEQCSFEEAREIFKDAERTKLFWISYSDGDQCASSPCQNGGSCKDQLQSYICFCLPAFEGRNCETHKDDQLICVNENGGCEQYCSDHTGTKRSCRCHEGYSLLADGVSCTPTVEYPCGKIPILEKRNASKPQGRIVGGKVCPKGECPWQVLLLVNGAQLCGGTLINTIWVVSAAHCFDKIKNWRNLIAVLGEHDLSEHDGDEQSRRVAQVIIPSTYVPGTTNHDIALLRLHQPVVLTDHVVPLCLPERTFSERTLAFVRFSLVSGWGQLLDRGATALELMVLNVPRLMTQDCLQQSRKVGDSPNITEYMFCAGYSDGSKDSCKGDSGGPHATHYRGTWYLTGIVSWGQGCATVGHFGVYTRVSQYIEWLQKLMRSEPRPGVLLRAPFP
The assay is described as follows: Compound was tested for inhibitory activity against Coagulation factor VIIa.

Assay [4] deals with Plasminogen (Homo sapiens, UniProt P00747). The assay is described as follows: Compound was tested for inhibitory activity against Plasmin.
Sequence of Plasminogen (P00747 97-580 limits assumed): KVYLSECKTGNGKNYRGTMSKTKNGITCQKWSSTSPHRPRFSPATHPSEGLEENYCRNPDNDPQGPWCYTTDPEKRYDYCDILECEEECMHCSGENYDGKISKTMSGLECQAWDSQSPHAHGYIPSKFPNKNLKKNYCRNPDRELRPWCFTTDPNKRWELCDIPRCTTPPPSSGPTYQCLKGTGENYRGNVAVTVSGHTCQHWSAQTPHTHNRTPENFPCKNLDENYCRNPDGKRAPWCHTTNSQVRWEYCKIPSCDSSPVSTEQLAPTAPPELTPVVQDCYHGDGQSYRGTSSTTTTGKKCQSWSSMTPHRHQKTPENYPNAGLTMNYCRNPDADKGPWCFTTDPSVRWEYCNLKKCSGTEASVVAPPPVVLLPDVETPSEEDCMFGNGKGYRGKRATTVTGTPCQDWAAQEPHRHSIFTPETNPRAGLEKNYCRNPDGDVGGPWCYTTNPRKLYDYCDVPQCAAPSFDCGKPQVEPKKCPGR
Sequence of Plasminogen (P00747 581-810 limits assumed): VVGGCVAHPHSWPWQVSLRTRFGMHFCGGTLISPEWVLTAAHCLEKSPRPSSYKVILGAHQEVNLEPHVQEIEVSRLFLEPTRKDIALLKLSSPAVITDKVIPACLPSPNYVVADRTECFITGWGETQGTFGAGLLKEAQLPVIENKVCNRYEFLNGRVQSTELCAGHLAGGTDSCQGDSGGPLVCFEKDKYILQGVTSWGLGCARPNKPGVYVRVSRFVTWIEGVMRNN
In assay [5] the target is T1, Coagulation factor XI. The assay is described as follows: Compound was tested for inhibitory activity against Coagulation factor XIa.

SMILES strings stand for the structures.

T1 sequence (P03951 19-387 limits assumed): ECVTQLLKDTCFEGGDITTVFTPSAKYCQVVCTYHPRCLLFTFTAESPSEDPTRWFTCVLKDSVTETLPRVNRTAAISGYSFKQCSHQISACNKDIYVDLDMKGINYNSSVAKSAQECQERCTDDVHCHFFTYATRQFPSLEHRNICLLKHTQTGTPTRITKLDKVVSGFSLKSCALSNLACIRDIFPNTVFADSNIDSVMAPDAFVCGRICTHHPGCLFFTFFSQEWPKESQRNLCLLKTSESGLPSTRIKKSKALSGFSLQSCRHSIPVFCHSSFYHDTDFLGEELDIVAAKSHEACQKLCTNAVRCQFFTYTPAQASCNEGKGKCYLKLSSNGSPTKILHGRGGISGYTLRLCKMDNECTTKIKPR
T1 sequence (P03951 388-625 limits assumed): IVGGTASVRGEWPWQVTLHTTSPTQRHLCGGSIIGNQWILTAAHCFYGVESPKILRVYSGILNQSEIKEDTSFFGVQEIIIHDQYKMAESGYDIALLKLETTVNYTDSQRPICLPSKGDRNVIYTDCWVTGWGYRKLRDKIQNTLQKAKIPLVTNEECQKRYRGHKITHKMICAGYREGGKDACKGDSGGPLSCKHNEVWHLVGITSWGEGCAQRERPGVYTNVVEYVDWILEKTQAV

As usually defined, the IC50 is the concentration that gives 50% inhibition. Higher therefore signals weaker potency. Broadly, the inhibition is the relative decrease from the control value, in per cent. Lower therefore signals a response near the control. Consider `C[C@]1(O)CC[C@@H]2CCC(C(=O)NCc3ccc(C(=N)N)cc3)N2C1=O` (stereo partly specified), for which the IC50 was 0.27 µM in assay [1] and greater than 10 µM in assay [3]. Further, the inhibition in assay [2] was 20%.

Take `C=C(C)C[C@]1(N)C[C@H](OC)[C@@H]2[C@H](CC)CC(C(=O)NCc3ccc(C(=N)N)cc3)N2C1=O` (stereo partly specified): the IC50 in assay [1] was 0.38 µM; in assay [4], 37 µM; in assay [5], greater than 133 µM; in assay [3], 1.6 µM.

With `CC[C@@H]1CC(C(=O)NCc2ccc(C(=N)N)cc2)N2C(=O)[C@@](N)(CC3=CCCCC3)C[C@H](OC)[C@H]12` (stereo partly specified), it took 109 µM to reach half-maximal inhibition in assay [3] (IC50).

In assay [2], `N=C(N)c1ccc(CNC(=O)C2CC[C@H]3CC[C@@](O)(Cc4ccccc4)C(=O)N23)cc1` (stereo partly specified) returned an inhibition of 78%. Also, inhibition in assay [3] was half-maximal at 1.1 µM (IC50).

On to `CC[C@@H]1CC(C(=O)NCc2ccc(C(=N)N)cc2)N2C(=O)[C@](N)(CC3=CCCCC3)C[C@H](OC)[C@H]12` (stereo partly specified), for which the IC50 in assay [1] is 0.17 µM; in assay [4], 141 µM; in assay [5], greater than 133 µM; in assay [3], 4.6 µM.

Regarding `CC[C@@H]1CC(C(=O)NCc2ccc(C(=N)N)cc2)N2C(=O)[C@](N)(Cc3ccccc3)C[C@H](OC)[C@H]12` (stereo partly specified), the IC50 in assay [4] is 11 µM; in assay [5] it was greater than 133 µM; in assay [3] it was 0.42 µM.

Turning to `CO[C@H]1C[C@@](O)(Cc2ccccc2)C(=O)N2C(C(=O)NCc3ccc(C(=N)N)cc3)CC[C@@H]12` (stereo partly specified), the IC50 in assay [1] came to 0.11 µM; in assay [4], 71 µM; in assay [5], 35 µM; in assay [3], 0.52 µM.

The record behind these values is ChEMBL document CHEMBL1136036, “Targeting thrombin and factor VIIa: design, synthesis, and inhibitory activity of functionally relevant indolizidinones” (Bioorg Med Chem Lett, 2002).
